# Measured values reported in patent US8198273B2, “Compounds and methods for kinase modulation, and indications therefor” (Plexxikon Inc., priority 2009, dated 2012).
# Legend:
# A-Raf = target: T1, A-Raf (Homo sapiens, UniProt P10398); experiment: A-Raf biochemical kinase inhibition (AlphaScreen, biotin-MEK1 substrate); conditions: 100 μM ATP
# T1 sequence (P10398 1-606): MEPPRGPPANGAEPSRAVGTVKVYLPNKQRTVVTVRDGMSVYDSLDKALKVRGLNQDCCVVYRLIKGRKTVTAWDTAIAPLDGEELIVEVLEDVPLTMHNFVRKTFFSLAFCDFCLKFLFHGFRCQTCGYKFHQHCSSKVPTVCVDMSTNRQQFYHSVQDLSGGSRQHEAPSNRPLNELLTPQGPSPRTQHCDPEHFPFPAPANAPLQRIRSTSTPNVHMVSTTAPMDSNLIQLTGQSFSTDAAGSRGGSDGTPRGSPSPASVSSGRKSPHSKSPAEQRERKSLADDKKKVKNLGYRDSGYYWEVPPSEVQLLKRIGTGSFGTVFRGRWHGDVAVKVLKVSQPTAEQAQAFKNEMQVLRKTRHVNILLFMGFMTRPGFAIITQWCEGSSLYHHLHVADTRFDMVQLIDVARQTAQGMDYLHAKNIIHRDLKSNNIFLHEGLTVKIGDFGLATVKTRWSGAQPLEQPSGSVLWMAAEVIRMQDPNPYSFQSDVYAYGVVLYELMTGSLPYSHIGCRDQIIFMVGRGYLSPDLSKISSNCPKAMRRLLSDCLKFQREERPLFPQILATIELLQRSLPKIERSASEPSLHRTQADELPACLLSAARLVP
# Outline: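 IC50 derived from AlphaScreen signal plotted against compound concentration. Final ATP 100 μM; 3 h incubation at room temperature. Eight-point 3-fold dilution series prepared from a 0.1 mM DMSO stock.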
# [1] = test system: SW620 colon adenocarcinoma cells (wild-type B-RAF); experiment: SW620 cell growth inhibition (ATPlite); format: cell-based; conditions: Homo sapiens, SW-620, 72 h; SW620, 3 days incubation
# Outline: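 Cells plated overnight, then exposed 3 days at 37° C to 8-point 1:3 compound dilutions topping at 10 μM final. Viability read as ATPlite luminescence, proportional to cell number; IC50 from luminescence versus concentration.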
# Colo205 xenograft = Colo205 xenograft mouse model, tumor growth inhibition; format: in vivo; conditions: COLO 205, 336 h, female nu/nu mice, 10 mg/kg daily for fourteen days
# Protocol: Tumor growth is monitored to approximately 100 mg size, and mice are distributed to treatment groups such that the mean tumor burden within a group is within 10% of the overall mean tumor burden. […] Mice are observed daily, with tumor burden and body weights measured twice a week. Animals with tumor burden above 1500-2000 mg and any animals in moribund condition are euthanized. The average tumor growth of vehicle control group mice is compared to the average tumor growth of the test compound mice. Percent tumor growth inhibition is calculated as 100×[(tumor growth control-tumor growth test compound)/tumor growth control].
# [2] = test system: SKMEL3 melanoma cells (B-Raf V600E); experiment: SKMEL3 cell growth inhibition (ATPlite); format: cell-based; conditions: Homo sapiens, SK-MEL3, 72 h; SKMEL3, 3 days incubation
# Protocol: (§1) Compounds are assessed in a variety of cell based assays. For example human cell lines with B-Raf V600E mutation (A375 melanoma, SKMEL3 melanoma, and COL0205 colon adenocarcinoma), as well as tumorigenic cell lines with wild-type B-RAF (SW620 colon adenocarcinoma) or with Ras mutations (SKMEL2 melanoma and IPC298 melanoma). Similar assays may be used to assess additional tumorigenic cell lines with Ras mutations, including, but not limited to, M202, M207, M243, M244, M296, S117, HCT116, HCT15, DLD1, MiaPaCa, A549, NCI-H23, NCI-H460, HOP62, MDA-MB231, Hs-578T, HL60, MOLT-4, and CCRF-CEM.
# (§2) On day 1, cells are counted, then centrifuged in a conical tube for 5 minutes at 1000 rpm. The supernatant is removed and cells are re-suspended as follows: • SW620 (ATCC catalog #CCL-27): resuspend in Leibovitz's L-15 medium, 2 mM L-glutamine, 10% fetal bovine serum to 6×10^4 cells/mL. • A375 (ATCC catalog #CRL-1619): resuspend in Dulbecco's modified Eagle's medium, 4 mM L-glutamine, 4.5 g/L D-glucose, 10% fetal bovine serum to 6×10^4 cells/mL. • COL0205 (ATCC catalog #CCL-222): resuspend in RPMI 1640, 2 mM L-glutamine, 1.5 g/L sodium bicarbonate, 4.5 g/L D-glucose, 10 mM HEPES, 1.0 mM sodium pyruvate, 10% fetal bovine serum to 6×10^4 cells/mL. • SKMEL2 (ATCC catalog #HTB-68): resuspend in Minimum Eagle essential medium, 2 mM L-glutamine, 1.5 g/L sodium bicarbonate, 0.1 mM non-essential amino acids, 1.0 mM sodium pyruvate, 10% fetal bovine serum to 6×10^4 cells/mL. • SKMEL3 (ATCC catalog #HTB-69): resuspend in McCoy's 5A medium, 1.5 mM L-glutamine, 15% fetal bovine serum to 6×10^4 cells/mL. • IPC298 (DSMZ catalog #ACC 251): resuspend in RPMI 1640, 2 mM L-glutamine, 10% fetal bovine serum to 6×10^4 cells/mL.
# (§3) The cells are plated, 50 μL in each well of a 96-well dish (Corning 3610) and incubated at 37° C. in 5% CO2 overnight, cells plated to a final concentration of cells as follows:
# SKMEL3: 3,000 cells per well.
# On day 2, compound at a maximum concentration of 5 mM is serially diluted 1:3 for a total of 8 point titration with DMSO as a control. A 1 μL aliquot of each dilution point and control is added to 249 μL growth media and 50 μL is added to a well containing cells, providing 10 μM compound at the maximum concentration point. The cells are incubated for 3 days at 37° C. in 5% CO2.
# (§4) On day 5, ATPlite 1 step Luminescence Assay System (Perkin Elmer #6016739) is brought to room temperature along with the cell cultures. ATPlite is added 25 μL to each well, shake for 2 minutes, and the cells are incubated at room temperature for 10 minutes, then luminescence is read on Safire reader. The measured luminescence correlates directly with cell number, such that the reading as a function of compound concentration is used to determine the IC50 value.
# It is understood that the results of these assays may vary as assay conditions are varied. Inhibition levels determined under the conditions described herein represent a relative activity for the compounds tested under the specific conditions employed. The cell based assays are likely to show variability due to the complexity of the system and the sensitivity thereof to any changes in the assay conditions. […] Results for compounds that are tested and show substantially no inhibition below the highest tested concentration are represented as “-” in the tables below. In some instances, the compounds were not tested in all of the assays, or assay results were not valid, as indicated by NA in the tables below.
# [3] = test system: IPC298 melanoma cells (Ras mutation); experiment: IPC298 cell growth inhibition (ATPlite); format: cell-based; conditions: Homo sapiens, IPC-298, 72 h; IPC298, 3 days incubation
# Protocol: as §1, §2, §3
# On day 2, compound at a maximum concentration of 5 mM is serially diluted 1:3 for a total of 8 point titration with DMSO as a control. […]
# as §4
# It is understood that the results of these assays may vary as assay conditions are varied. Inhibition levels determined under the conditions described herein represent a relative activity for the compounds tested under the specific conditions employed. […]
SMILES,IC50 (A-Raf) [nM],IC50 [1] [µM],inhibition in vivo at 10 mg/kg (Colo205 xenograft) [%],IC50 [2] [µM],IC50 [3] [µM]
"N#Cc1cnc2[nH]cc(C(=O)c3c(F)ccc(NS(=O)(=O)c4ccccc4F)c3F)c2c1 [P-2011, N-[3-(5-Cyano-1H-pyrrolo[2,3-b]pyridine-3-carbonyl)-2,4-difluoro-phenyl]-2-fluoro-benzenesulfonamide]",< 10,> 10,72,–,–
"Cc1cnc2[nH]cc(C(=O)c3c(F)ccc(NS(=O)(=O)c4cc(F)ccc4F)c3F)c2c1 [P-2015, N-[2,4-Difluoro-3-(5-methyl-1H-pyrrolo[2,3-b]pyridine-3-carbonyl)-phenyl]-2,5-difluoro-benzenesulfonamide]",< 10,> 10,67,–,–
"COc1ccnc2[nH]cc(C(=O)c3c(F)ccc(NS(=O)(=O)c4ccccc4F)c3F)c12 [P-2021, N-[2,4-Difluoro-3-(4-methoxy-1H-pyrrolo[2,3-b]pyridine-3-carbonyl)-phenyl]-2-fluoro-benzenesulfonamide]",–,> 10,35,–,–
"COc1ncc(-c2cnc3[nH]cc(C(=O)c4c(F)ccc(NS(=O)(=O)c5ccccc5F)c4F)c3c2)cn1 [P-2041, N-{2,4-Difluoro-3-[5-(2-methoxy-pyrimidin-5-yl)-1H-pyrrolo[2,3-b]pyridine-3-carbonyl]-phenyl}-2-fluoro-benzenesulfonamide]",–,> 10,–,< 1,< 1
"COc1ncc(-c2cnc3[nH]cc(C(=O)c4c(F)ccc(NS(=O)(=O)c5cccc(F)c5)c4F)c3c2)cn1 [P-2045, N-{2,4-Difluoro-3-[5-(2-methoxy-pyrimidin-5-yl)-1H-pyrrolo[2,3-b]pyridine-3-carbonyl]-phenyl}-3-fluoro-benzenesulfonamide]",–,> 10,–,< 5,–
"N#Cc1cnc2[nH]cc(C(=O)c3c(F)ccc(NS(=O)(=O)c4ccccc4)c3F)c2c1 [P-2046, N-[3-(5-Cyano-1H-pyrrolo[2,3-b]pyridine-3-carbonyl)-2,4-difluoro-phenyl]-benzenesulfonamide]",< 10,< 5,70,–,–
"N#Cc1cnc2[nH]cc(C(=O)c3cccc(NS(=O)(=O)c4ccccc4)c3F)c2c1 [P-2056, N-[3-(5-Cyano-1H-pyrrolo[2,3-b]pyridine-3-carbonyl)-2-fluoro-phenyl]-benzenesulfonamide]",< 10,< 5,66,–,–
"Cc1cnc2[nH]cc(C(=O)c3c(F)ccc(NS(=O)(=O)c4cccnc4)c3F)c2c1 [P-2069, Pyridine-3-sulfonic acid [2,4-difluoro-3-(5-methyl-1H-pyrrolo[2,3-b]pyridine-3-carbonyl)-phenyl]-amide]",< 100,–,29,–,–
"CCCS(=O)(=O)Nc1ccc(F)c(C(=O)c2c[nH]c3ncc(-c4cncnc4)cc23)c1F [P-2162, Propane-1-sulfonic acid [2,4-difluoro-3-(5-pyrimidin-5-yl-1H-pyrrolo[2,3-b]pyridine-3-carbonyl)-phenyl]-amide]",–,> 10,17,–,–
"CCCS(=O)(=O)Nc1ccc(F)c(C(=O)c2c[nH]c3ncc(-c4ccc(OCCCN(C)C)nc4)cc23)c1F [P-2178, Propane-1-sulfonic acid (3-{5-[6-(3-dimethylamino-propoxy)-pyridin-3-yl]-1H-pyrrolo[2,3-b]pyridine-3-carbonyl}-2,4-difluoro-phenyl)-amide]",–,> 10,0,–,–
"CCCS(=O)(=O)Nc1ccc(F)c(C(=O)c2c[nH]c3ncc(-c4cnc(SC)nc4)cc23)c1F [P-2189, Propane-1-sulfonic acid {2,4-difluoro-3-[5-(2-methylsulfanyl-pyrimidin-5-yl)-1H-pyrrolo[2,3-b]pyridine-3-carbonyl]-phenyl}-amide]",–,> 10,–,–,< 10
"CCCS(=O)(=O)Nc1ccc(F)c(C(=O)c2c[nH]c3ncc(-c4cnc(C)nc4)cc23)c1F [P-2211, Propane-1-sulfonic acid {2,4-difluoro-3-[5-(2-methyl-pyrimidin-5-yl)-1H-pyrrolo[2,3-b]pyridine-3-carbonyl]-phenyl}-amide]",–,> 10,0,–,–
"CCCS(=O)(=O)Nc1ccc(F)c(C(=O)c2c[nH]c3ncc(-c4cnc(N5CCCC5)nc4)cc23)c1F [P-2219, Propane-1-sulfonic acid {2,4-difluoro-3-[5-(2-pyrrolidin-1-yl-pyrimidin-5-yl)-1H-pyrrolo[2,3-b]pyridine-3-carbonyl]-phenyl}-amide]",–,> 10,–,< 5,–
"CCCS(=O)(=O)Nc1ccc(F)c(C(=O)c2c[nH]c3ncc(-c4ccc(OCCN5CCOCC5)nc4)cc23)c1F [P-2232, Propane-1-sulfonic acid (2,4-difluoro-3-{5-[6-(2-morpholin-4-yl-ethoxy)-pyridin-3-yl]-1H-pyrrolo[2,3-b]pyridine-3-carbonyl}-phenyl)-amide]",< 10,> 10,54,–,–
"CCCS(=O)(=O)Nc1ccc(F)c(C(=O)c2c[nH]c3ncc(C#CCOC)cc23)c1F [P-2239, Propane-1-sulfonic acid {2,4-difluoro-3-[5-(3-methoxy-prop-1-ynyl)-1H-pyrrolo[2,3-b]pyridine-3-carbonyl]-phenyl}-amide]",< 10,> 10,4,–,–
"C#Cc1cnc2[nH]cc(C(=O)c3c(F)ccc(NS(=O)(=O)CCC)c3F)c2c1 [P-2260, Propane-1-sulfonic acid [3-(5-ethynyl-1H-pyrrolo[2,3-b]pyridine-3-carbonyl)-2,4-difluoro-phenyl]-amide]",< 10,> 10,79,–,–
